Key:
[1] = biological target: T1, human Serotonin 5-HT1D receptor (Homo sapiens, UniProt P28221); assay: GTPγS functional assay; type: biochemical; conditions: read-out: Functional activity (agonist)
T1 construct: purchased Euroscreen
Experimental: Functional profiling of agonist and antagonist activities of 8′-OH DHE on human Adrenergic α1D, Dopamine D2L, and Serotonin 5-HT1B, 5-HT1D, 5-HT1F, 5-HT3, 5-HT4e and 5-HT5A receptors (compared against the parent (DHE) molecule) was carried out as follows.
The SPA 35S-GTPγS tests were conducted with Euroscreen membrane preparations […]. The HTRF assays were conducted with recombinant cell lines. The receptor accession numbers, cellular background and reference compounds are as reported below in Table 10.
(3) 8′-OH DHE was tested for agonist and antagonist activity at the human Serotonin 5-HT1B and Serotonin 5-HT1D receptors using GTPγS assay (in triplicate) at the following nanomolar concentrations: […]
The assay procedure was carried out as follows. […] The plates were then centrifuged for 10 minutes at 2,000 rpm and counted for 1 min/well with a Perkin Elmer TopCount reader.
Agonist activity of the test compounds was expressed as a percentage of the activity of the reference agonist at its EC100 concentration. Antagonist activity of the test compounds was expressed as a percentage of the inhibition of the reference agonist activity at its EC80 concentration. Dose-response data from the test compounds were analyzed with XLfit (IDBS) software using nonlinear regression applied to a sigmoidal dose-response model and the following equation: […]

[2] = system: Glutamate (mGlu3/mGlu5/mG1u7); assay: Glutamate receptor aequorin / cAMP assays; type: cell-based, human; conditions: mGlu receptors
Experimental: Additional receptor agonist/agonist activity assessments were performed using the 8′-OH DHE test compound. Table 12 contains a summary of the cell lines (CHO-K1/HEK293 transfected with relevant human receptor) and the assays performed to detect any agonist or antagonist activity. […]
For agonist testing, 30 μL of cell suspension was mixed with 30 μL of the test 8′-OH DHE compound or reference agonist in a 384-well plate. The resulting emission of light was recorded using the FDSS 6000 luminometer. […] The resulting emission of light was recorded using the FDSS 6000 luminometer.
Cells expressing the human recombinant receptor of interest were grown in media without antibiotic and detached by gentle flushing with PBS-EDTA (5 mM EDTA), recovered by centrifugation and resuspended in assay buffer (KRH: 5 mM KCl, 1.25 mM MgSO4, 124 mM NaCl, 25 mM HEPES, 13.3 mM glucose, 1.25 mM KH2PO4, 1.45 mM CaCl2, 0.5 g/L BSA). […] Lysis buffer was added and after one hour incubation, cAMP concentrations were determined according to the manufacturer specification with the HTRF kit. […] Lysis buffer was added and after 1 hour incubation, cAMP concentrations were determined according to the manufacturer specification, with the HTRF kit. […]

T1 sequence (P28221 whole entry): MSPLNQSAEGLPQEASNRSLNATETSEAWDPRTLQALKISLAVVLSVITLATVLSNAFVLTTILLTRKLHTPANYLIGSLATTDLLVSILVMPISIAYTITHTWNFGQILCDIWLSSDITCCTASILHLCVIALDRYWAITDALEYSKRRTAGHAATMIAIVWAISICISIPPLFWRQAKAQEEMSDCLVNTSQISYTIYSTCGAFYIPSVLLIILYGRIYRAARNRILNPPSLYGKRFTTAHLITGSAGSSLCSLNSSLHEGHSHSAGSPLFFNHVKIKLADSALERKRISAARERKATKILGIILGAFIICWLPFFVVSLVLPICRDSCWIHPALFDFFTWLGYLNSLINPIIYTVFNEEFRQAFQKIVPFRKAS

## CN1C[C@H](C(=O)N[C@]2(C)O[C@@]3(O)[C@@H]4CCC(O)N4C(=O)[C@H](Cc4ccccc4)N3C2=O)C[C@@H]2c3cccc4[nH]cc(c34)C[C@H]21 (some centres unmarked) [8′-OH DHE, 8′-Hydroxy-Dihydroergotamine]
[1]
  EC50: 0.49 nM
[2]
  Activity (Agonism: EC50; Antagonism: IC50): Inactive

Source: patent US20150306096A1, “8'-HYDROXY-DIHYDROERGOTAMINE COMPOUNDS AND COMPOSITIONS” (MAP Pharmaceuticals, Inc., priority 2012, published 2015)
